For ten compounds, IC50 results are on record in patent US20070203118A1, “SUBSTITUTED TETRAHYDROISOQUINOLINES USED IN THE FORM OF MMP INHIBITORS, METHOD FOR THE PRODUCTION AND USE THEREOF IN THE FORM OF DRUGS” (SANOFI-AVENTIS DEUTSCHLAND GMBH, priority 2004, published 2007).

The target of test [1] is T1, catalytic domain of human stromelysin (MMP-3) (Homo sapiens, UniProt P08254).
T1 construct: Preparation and Determination of the Enzymatic Activity of the Catalytic Domain of Human Stromelysin (MMP-3); made in house
T1 sequence (P08254 100-272 limits assumed): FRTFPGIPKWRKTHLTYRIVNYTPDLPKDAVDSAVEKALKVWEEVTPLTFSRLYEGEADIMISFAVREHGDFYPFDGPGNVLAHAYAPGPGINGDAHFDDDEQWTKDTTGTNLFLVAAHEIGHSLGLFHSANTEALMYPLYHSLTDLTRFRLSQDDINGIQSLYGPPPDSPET
As to the kind of experiment: Enzymatic activity of the catalytic domain of human stromelysin (MMP-3), fluorogenic substrate. The format is biochemical. Here is the method:
Preparation and Determination of the Enzymatic Activity of the Catalytic Domain of Human Stromelysin (MMP-3) and of Neutrophil Collagenase (MMP-8)
The two enzymes stromelysin (MMP-3) and neutrophil collagenase (MMP-8) were prepared by the method of Ye et al. (Biochemistry; 31 (1992) pages 11 231-11 235). The enzymic activity or the effect of the enzyme inhibitor was measured by incubating 10 μl of enzyme solution with 10 μl of a 3% strength (v/v) buffered dimethyl sulfoxide solution which contained the enzyme inhibitor where appropriate, for 15 minutes. After addition of 10 μl of a 3% strength (v/v) aqueous dimethyl sulfoxide solution which contained 1 mmol/l of the substrate, the enzymic reaction was followed by fluorescence spectroscopy (328 nm (ex)/393 nm(em)). The enzymic activity is presented as increase in extinction/minute.
The IC50 values listed in Table 4 were determined as the inhibitor concentrations leading in each case to 50% inhibition of the enzyme. The buffer solution contained 0.05% Brij (Sigma, Deisenhofen, Germany) and 0.1 mol/l Tris/HCl, 0.1 mol/l NaCl, 0.01 mol/l CaCl2 and 0.1 mol/l piperazine-N,N′-bis[2-ethanesulfonic acid] (pH=7.5).
The MMP-3 enzyme solution contained 2.3 μg/ml and the MMP-8 enzyme solution 0.6 μg/ml of one of the enzyme domains prepared by the method of Ye et al. The substrate solution contained 1 mmol/l of the fluorogenic substrate (7-methoxycoumarin-4-yl)acetyl-Pro-Leu-Gly-Leu-3-(2′,4′-dinitrophenyl)-L-2,3-diaminopropionyl-Ala-Arg-NH2 (Bachem, Heidelberg, Germany).

In test [2] the target is T2, catalytic domain of human gelatinase-A (MMP-2) (Homo sapiens, UniProt P08253).
T2 construct: Determination of the Enzymatic Activity of the Catalytic Domain of Human Gelatinase-A (MMP-2); purchased INVITEK, Berlin
T2 sequence (P08253 110-660): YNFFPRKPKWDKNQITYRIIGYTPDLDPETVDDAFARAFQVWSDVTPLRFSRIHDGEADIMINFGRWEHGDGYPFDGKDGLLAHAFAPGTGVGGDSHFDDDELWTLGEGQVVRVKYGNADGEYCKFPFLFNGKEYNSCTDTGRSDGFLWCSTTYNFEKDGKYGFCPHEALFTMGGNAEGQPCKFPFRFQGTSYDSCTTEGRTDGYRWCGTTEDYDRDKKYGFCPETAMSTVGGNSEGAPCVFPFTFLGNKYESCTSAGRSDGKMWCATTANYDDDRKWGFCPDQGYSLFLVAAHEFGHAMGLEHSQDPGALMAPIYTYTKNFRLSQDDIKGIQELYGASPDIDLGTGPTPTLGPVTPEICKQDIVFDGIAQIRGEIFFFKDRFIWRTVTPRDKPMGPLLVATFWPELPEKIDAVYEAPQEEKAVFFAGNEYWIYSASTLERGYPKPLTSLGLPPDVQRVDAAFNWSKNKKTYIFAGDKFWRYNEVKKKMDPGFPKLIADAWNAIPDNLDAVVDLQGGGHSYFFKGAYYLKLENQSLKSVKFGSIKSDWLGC
As to the kind of experiment: Enzymatic activity of the catalytic domain of human gelatinase-A (MMP-2), fluorogenic substrate. The format is biochemical. Here is the method:
Determination of the Enzymatic Activity of the Catalytic Domain of Human Gelatinase-A (MMP-2)
Activation of the proenzyme: 2 parts by volume of proenzyme were incubated with 1 part by volume of APMA solution at 37° C. for 0.5 hours. The APMA solution was prepared from a 10 mmol/l p-aminophenylmercuric acetate solution in 0.1 mmol/l NaOH by dilution with 3 parts by volume of Tris/HCl buffer pH 7.5 (see below). The pH was adjusted to between 7.0 and 7.5 by adding 1 mmol/l HCl. After activation of the enzyme it was diluted with the Tris/HCl buffer to a concentration of 0.83 μg/ml.
The enzymic activity was measured by incubating 10 μl of enzyme solution with 10 μl of a 3% strength (v/v) buffered dimethyl sulfoxide solution (reaction 1) for 15 minutes. The enzyme inhibitor activity was measured by incubating 10 μl of enzyme solution with 10 μl of a 3% strength (v/v) buffered dimethyl sulfoxide solution which contained the enzyme inhibitor (reaction 2).
The enzymic reaction both in the case of reaction 1 and in the case of reaction 2 was followed after addition of 10 μl of a 3% strength (v/v) aqueous dimethyl sulfoxide solution which contained 0.3 mmol/l of the substrate by fluorescence spectroscopy (328 nm (extinction)/393 nm (emission)).
The enzymic activity has been presented as increase in extinction/minute.
The effect of the inhibitor was calculated as percentage inhibition by the following formula: % inhibition=100−[(increase in extinction/minute in reaction 2)/(increase in extinction/minute in reaction 1)×100].
The IC50, which is the concentration of inhibitor which is necessary for 50% inhibition of the enzymic activity, was determined graphically by plotting the percentage inhibitions at various inhibitor concentrations.
The buffer solution contained 0.05% Brij (Sigma, Deisenhofen, Germany) and 0.1 mol/l Tris/HCl, 0.1 mol/l NaCl, 0.01 mol/l CaCl2 (pH=7.5). The enzyme solution contained […] of the enzyme domain. The substrate solution contained 0.3 mmol/l of the fluorogenic substrate (7-methoxycoumarin-4-yl)acetyl-Pro-Leu-Gly-Leu-3-(2′,4′-dinitrophenyl)-L-2,3-diaminopropionyl-Ala-Arg-NH2 (Bachem, Heidelberg, Germany).

For orientation: IC50 means the concentration at which inhibition is half-maximal. A high value points to weaker potency in that assay. On to `O=C(NO)[C@H]1c2ccccc2CCN1S(=O)(=O)c1ccc(Oc2ccncc2)cc1` [Compound 11], for which the IC50 came out at 25 nM in test [1] and 2.3 nM in test [2].
In the case of `O=C(NO)[C@H]1c2ccccc2CCN1S(=O)(=O)c1ccc(Oc2ccc(OC(F)(F)F)cc2)nc1` [Compound 43, (R)-2-[6-(4-trifluoromethoxyphenoxy)pyridine-3-sulfonyl]-1,2,3,4-tetrahydro-isoquinoline-1-hydroxycarboxamide], the values for the IC50 in test [1] and in test [2] were 300 nM and 23 nM, respectively.
`O=C(NO)[C@H]1c2ccccc2CCN1S(=O)(=O)c1ccc(Oc2ccc(Cl)cc2)cc1` [Compound 9]: the results for the IC50 in test [1] and in test [2] were 23 nM and 2 nM, respectively.
For `O=C(NO)[C@H]1c2ccccc2CCN1S(=O)(=O)c1ccc(Oc2ccc(OCC(F)(F)F)cc2)cc1` [Compound 22] the same measures were 520 nM and 25 nM.
For `O=C(NO)[C@H]1c2ccccc2CCN1S(=O)(=O)c1ccc(Oc2ccc(C(F)(F)F)cc2)cc1` [Compound 21, (R)-2-[4-(4-trifluoromethylphenoxy)benzenesulfonyl]-1,2,3,4-tetrahydro-isoquinoline-1-hydroxycarboxamide], in that order: 33 nM and 2.2 nM.
On to `COc1cc2c(cc1OC)[C@@H](C(=O)NO)N(S(=O)(=O)c1ccc(-c3ccc(Cl)cc3)cc1)CC2` [Compound 15], for which the IC50 in test [1] was 20 nM; in test [2] it was 1 nM.
Take “(R)-4-(1-hydroxycarbamoyl-3,4-dihydro-1H-isoquinoline-2-sulfonyl)phenyl benzoate [Compound 48]”: the IC50 in test [1] came to 26 nM; in test [2] it was 2 nM.
Consider `COc1ccc(F)c2c1[C@H](C(=O)NO)N(S(=O)(=O)c1ccc(-c3ccc(Cl)cc3)cc1)CC2` [Compound 18], for which the IC50 in test [1] is 800 nM; in test [2], 4.5 nM.
Consider “2-{2-[4-(4-fluorophenoxy)phenyl]ethanesulfonyl}-1,2,3,4-tetrahydroisoquinoline-1-hydroxycarboxamide [Compound 20]”, for which the IC50 was 23 nM in test [1] and 2 nM in test [2].
For `O=C(NO)[C@H]1c2ccccc2CCN1S(=O)(=O)c1ccc(Oc2ccc(Cl)cc2)nc1` [Compound 45, (R)-2-[6-(4-chlorophenoxy)pyridine-3-sulfonyl]-1,2,3,4-tetrahydroisoquinoline-1-hydroxycarboxamide], the IC50 in test [1] is 45 nM; in test [2] it was 2 nM.
